The test system of one series is AVEFA. The series can be described thus: C. Herbicidal pre-emergence action, weed and crop plants (Tables C). Format: in vivo, Avena fatua. The settings on record: application rate 320 g/ha; Table C4. The source says:
Seeds of mono- and dicotyledonous weed plants and crop plants were sown, in plastic or organic planting pots, in sandy loam and covered with soil. The compounds according to the invention, formulated in the form of wettable powders (WP) or as emulsifiable concentrates (EC), were applied to the surface of the covering soil as aqueous suspension or emulsion, with the addition of 0.5% of an additive, at an application rate of 6001 of water/ha (converted). Following treatment, the pots were placed in a greenhouse and kept under optimum growth conditions for the test plants. The visual grading of the damage to the test plants was carried out after ca. 3 weeks in comparison to untreated controls (herbicidal effect in percent (%): 100% effect = plants have died off, 0% effect = as control plants). Tables C1 to C12 below show the effects of selected compounds of the general formula (I) according to table 1 on various harmful plants and an application rate corresponding to 320 g/ha or below obtained by the experimental procedure mentioned above. Table C1: pre-emergence activity at 320g/ha against KCHSC in %

The next series has as its system AMARE. Description: B. Herbicidal post-emergence action on harmful plants (Tables B). Format: in vivo, Amaranthus retroflexus. The note with it: application rate 1280 g/ha; Table B8. A digest of the protocol:
(§1)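 Activity was scored visually as % damage (100% = dead, 0% = like untreated) about 3 weeks after treatment. Plants at the one-leaf stage, 2-3 weeks old, were sprayed with WP/EC formulations plus 0.5% additive (600 L/ha water, up to 1280 g/ha). Plants were grown in sandy loam in a greenhouse.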

Series [1] relates to ORYZA. Description: D. Pre-emergence effects on crop plants (Tables D). The class given is in vivo, Oryza sativa. The settings on record: crop plant. The text has this: (§2) Seeds of mono- and dicotyledonous weed plants and crop plants were sown, in plastic or organic planting pots, in sandy loam and covered with soil. The compounds according to the invention, formulated in the form of wettable powders (WP) or as emulsifiable concentrates (EC), were applied to the surface of the covering soil as aqueous suspension or emulsion, with the addition of 0.5% of an additive, at an application rate of 6001 of water/ha (converted).
(§3) Following treatment, the pots were placed in a greenhouse and kept under optimum growth conditions for the test plants. The visual grading of the damage to the test plants was carried out after ca. 3 weeks in comparison to untreated controls (herbicidal effect in percent (%): 100% effect = plants have died off, 0% effect = as control plants).
(§4) Tables D1 to D5 below show the effects of various compounds of the general formula (I) according to Table 1 on various crop plants and an application rate corresponding to 320 g/ha or below obtained by the experimental procedure mentioned above in Biological Examples, Section C. Table D1a: pre-emergence activity at 320g/ha against ZEAMX in %

A further series concerns TRZAS. Description: D. Pre-emergence effects on crop plants (Tables D). The class given is in vivo, Triticum aestivum. The note with it: crop plant.
Text: as §2, §3, §4

The subject of series [2] is ORYZA. The series can be described thus: F. Post-emergence effects on crop plants (Tables F). The class given is in vivo, Oryza sativa. The note with it: crop plant. The text has this: Seeds of mono- and dicotyledonous weed plants and crop plants were sown, in plastic or organic planting pots, in sandy loam, covered with soil and grown in a greenhouse under controlled growth conditions. 2 to 3 weeks after sowing, the test plants were sprayed in the single-leaf stage. The compounds according to the invention, formulated in form of wettable powders (WP) or as emulsifiable concentrates (EC), were sprayed onto the green plant parts as aqueous suspension or emulsion, with the addition of 0.5% of an additive, at an application rate of 6001 of water/ha (converted). The test plants were placed in the greenhouse for ca. 3 weeks under optimum growth conditions, and then the effect of the preparations was assessed visually in comparison with untreated controls (herbicidal effect in percent (%): 100% effect = plants have died off, 0% effect = as control plants). Tables F1 to F5 below show the effects of selected compounds of the general formula (I) according to table 1 on various crop plants and an application rate corresponding to 320 g/ha or below obtained by the experimental procedure mentioned above. Table […]: post-emergence activity at 320g/ha against ZEAMX in %

Series [3] has as its system LOLRI. The series can be described thus: B. Herbicidal post-emergence action on harmful plants (Tables B). Format: in vivo, Lolium rigidum. The settings on record: application rate 1280 g/ha; Table B3. Here is the method:
Seeds of mono- and dicotyledonous weed plants were placed in plastic pots in sandy loam soil (doubly sown with in each case one species of mono- or dicotyledonous weed plants per pot), covered with soil and cultivated in a greenhouse under controlled growth conditions. 2 to 3 weeks after sowing, the test plants were treated at the one-leaf stage. The compounds of the invention, formulated in the form of wettable powders (WP) or as emulsion concentrates (EC), were applied onto the green parts of the plants as aqueous suspension or emulsion with addition of 0.5% additive at a water application rate of 600 liters per hectare (converted). After the test plants had been kept in the greenhouse under optimum growth conditions for about 3 weeks, the activity of the preparations was rated visually in comparison to untreated controls. For example, 100% activity = the plants have died, 0% activity = like control plants. Tables B1 to B12, below, show the effects of selected compounds of the general formula (I) according to table 1 on various harmful plants and an application rate corresponding to 1280 g/ha or below obtained by the experimental procedure mentioned above. Table B1a: post-emergence activity at 1280g/ha against ABUTH in %

A further series relates to STEME. The series is described as above. The settings on record: application rate 1280 g/ha; Table B6. The class given is in vivo, Stellaria media. An outline of the steps:
as §1

In series [4] the test system is LOLRI. The series can be described thus: E. Herbicidal post-emergence action, weed and crop plants (Tables E). The class given is in vivo, Lolium rigidum. The note with it: application rate 320 g/ha, visual assessment after ca. 3 weeks. The source says: (§5) Seeds of mono- and dicotyledonous weed plants and crop plants were sown, in plastic or organic planting pots, in sandy loam, covered with soil and grown in a greenhouse under controlled growth conditions. 2 to 3 weeks after sowing, the test plants were sprayed in the single-leaf stage. The compounds according to the invention, formulated in form of wettable powders (WP) or as emulsifiable concentrates (EC), were sprayed onto the green plant parts as aqueous suspension or emulsion, with the addition of 0.5% of an additive, at an application rate of 6001 of water/ha (converted). The test plants were placed in the greenhouse for ca. 3 weeks under optimum growth conditions, and then the effect of the preparations was assessed visually in comparison with untreated controls (herbicidal effect in percent (%): 100% effect = plants have died off, 0% effect = as control plants). Tables E1 to E7 below show the effects of selected compounds of the general formula (I) according to table 1 on various harmful plants and an application rate corresponding to 320 g/ha or below obtained by the experimental procedure mentioned above. Table E1: post-emergence activity at 320g/ha against ALOMY in %

The next series concerns VERPE. Description: B. Herbicidal post-emergence action on harmful plants (Tables B). Format: in vivo, Veronica persica. A digest of the protocol:
as §1

Series [5] relates to SETVI. The series is described as above. Format: in vivo, Setaria viridis. The settings on record: application rate 1280 g/ha; Table B5. A digest of the protocol: as §1
For series [6], the system named is SETVI. Description: E. Herbicidal post-emergence action, weed and crop plants (Tables E). The class given is in vivo, Setaria viridis. The note with it: application rate 320 g/ha, visual assessment after ca. 3 weeks.
Text: as §5

The mark [7] stands for this setting: application rate 80 g/ha, Table D3b.
The mark [8] stands for this setting: application rate 320 g/ha, Table D3a.
Where [9] appears, read: application rate 80 g/ha, Table D2b.
Where [10] appears, read: application rate 1280 g/ha, Table B11a.

In the case of `COCc1nn(C)cc1C(=O)N1CCCC1Cc1ccccc1F` (racemic) [Example I-002], the “pre-emergence activity against AVEFA” value in the series with AVEFA is reported as 80%. The “post-emergence activity against AMARE” value in the series on AMARE turned out to be 90%.
On to `Cn1cc(C(=O)N2CCCC2Cc2ccccc2F)c(COc2ccccc2)n1` (racemic) [Example I-006], for which the “pre-emergence activity against ORYZA” value with ORYZA [1] (setting [7]) and in the series on ORYZA [1] (setting [8]) was 0% each time. Further, the “pre-emergence activity against TRZAS” value was 0% in the series on TRZAS (setting [9]) and 20% in the series on TRZAS (application rate 320 g/ha, Table D2a). Also, the “post-emergence activity against AMARE” value in the series on AMARE is 90%. Further, the “post-emergence activity against ORYZA in %” value with ORYZA [2] (application rate 80 g/ha) and with ORYZA [2] (application rate 320 g/ha) was 0% throughout.
As for `Cn1cc(C(=O)N2CCCC2Cc2ccc(F)cc2F)c(COc2ccccc2)n1` (racemic) [Example I-008], the “pre-emergence activity against ORYZA” value with ORYZA [1] (setting [7]) and in the series with ORYZA [1] (setting [8]) was 0% throughout. Besides, the “pre-emergence activity against TRZAS” value in the series on TRZAS (setting [9]) is given as 10%. The “post-emergence activity against ORYZA in %” value with ORYZA [2] (application rate 80 g/ha) and with ORYZA [2] (application rate 320 g/ha) was 0% each time.
For the compound `COCc1nn2c(c1C(=O)N1CCCC1Cc1ccccc1F)CCC2` (racemic) [Example I-022], the “pre-emergence activity against TRZAS” value in the series with TRZAS (setting [9]) was determined as 0%.
`C=C(c1ccccc1F)C1CCCN1C(=O)c1cn(C)nc1COC` (racemic) [Example I-023]: the “post-emergence activity against LOLRI” value in the series on LOLRI [3] is 90%.
On to `CNC(=O)n1cc(C(=O)N2CCCC2Cc2ccccc2F)c(COC)n1` (racemic) [Example I-051], for which, in the series with STEME, the “post-emergence activity against STEME” value is reported as 90%.
Regarding `COCc1c(C(=O)N2CCCC2Cc2ccccc2Cl)cnn1C` (racemic) [Example I-170], in the series on LOLRI [3], the “post-emergence activity against LOLRI” value stood at 90%. Also, the “post-emergence activity against ORYZA in %” value in the series on ORYZA [2] (application rate 80 g/ha) is 0%. In addition, the “post-emergence activity against LOLRI in %” value in the series on LOLRI [4] came to 80%. Also, in the series on VERPE (setting [10]), the “post-emergence activity against VERPE” value turned out to be 90%. Besides, the “post-emergence activity against SETVI” value in the series on SETVI [5] was determined as 90%.
As for `COCc1nn(C)cc1C(=O)N1CCCC1Cc1ccccc1F` (single isomer, unassigned) [Example I-003], the “post-emergence activity against SETVI in %” value in the series on SETVI [6] is given as 80%. For the same compound, the “pre-emergence activity against AVEFA” value with AVEFA is recorded as 90%. Besides, the “post-emergence activity against ORYZA in %” value in the series with ORYZA [2] (application rate 80 g/ha) is on record as 0%. Besides, in the series with LOLRI [4], the “post-emergence activity against LOLRI in %” value was 80%. For the same compound, the “post-emergence activity against VERPE” value in the series on VERPE (application rate 80 g/ha, Table B11c) is 90%; with VERPE (application rate 320 g/ha, Table B11b) it was 90%; with VERPE (setting [10]), 90%.
Consider `COCc1nn(C)cc1C(=O)N1CCCC1C(O)c1ccccc1F` (single isomer, unassigned) [Example I-053], for which the “post-emergence activity against SETVI in %” value in the series on SETVI [6] stood at 80%. In addition, the “post-emergence activity against SETVI” value with SETVI [5] came out at 90%.
With `COCc1c(C(=O)N2CCCC2Cc2ccccc2F)cnn1C` (single isomer, unassigned) [Example I-157], the “post-emergence activity against ORYZA in %” value in the series on ORYZA [2] (application rate 80 g/ha) is 10%. Further, the “post-emergence activity against STEME” value in the series on STEME was 100%.

The record behind these values is EP4417602A1, “SUBSTITUTED PYRAZOLE CARBOXAMIDES, SALTS THEREOF AND THEIR USE AS HERBICIDALLY ACTIVE SUBSTANCES” (Bayer AG, priority 2023, dated 2024).
